The source of these data is ChEMBL document CHEMBL4699634, “Series of Novel and Highly Potent Cyclic Peptide PCSK9 Inhibitors Derived from an mRNA Display Screen and Optimized via Structure-Based Design” (J Med Chem, 2020).

Numbered stars: 1 amine (or outer) side, 2 acyl side, 3 side chain; on linkers, the order of the positions; unused ones are H or OH. Bridge positions count the residues as written; N and C are the ends. Square brackets hold non-standard residues; d marks the D form. Peptide text beside a SMILES is read from it. ξ: configuration not given here. Trp(5-F) = N[C@@H](Cc1c[nH]c2ccc(F)cc12)C(=O)O; NMePhe(4-F) = CN[C@@H](Cc1ccc(F)cc1)C(=O)O; Bip = N[C@@H](Cc1ccc(-c2ccccc2)cc1)C(=O)O; mXylylene = c1cc(C[*:1])cc(C[*:2])c1; NMeK = CN[C@@H](CCCCN)C(=O)O; ξhPhe = NC(CCc1ccccc1)C(=O)O; Mpa = O=C(O)CCS

Sequence of PCSK9/LDLR (Q8NBP7 31-152 limits assumed): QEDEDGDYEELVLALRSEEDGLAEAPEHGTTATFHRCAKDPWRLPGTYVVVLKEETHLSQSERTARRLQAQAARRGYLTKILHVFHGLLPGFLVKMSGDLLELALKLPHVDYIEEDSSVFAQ
Sequence of PCSK9/LDLR (Q8NBP7 153-692 limits assumed): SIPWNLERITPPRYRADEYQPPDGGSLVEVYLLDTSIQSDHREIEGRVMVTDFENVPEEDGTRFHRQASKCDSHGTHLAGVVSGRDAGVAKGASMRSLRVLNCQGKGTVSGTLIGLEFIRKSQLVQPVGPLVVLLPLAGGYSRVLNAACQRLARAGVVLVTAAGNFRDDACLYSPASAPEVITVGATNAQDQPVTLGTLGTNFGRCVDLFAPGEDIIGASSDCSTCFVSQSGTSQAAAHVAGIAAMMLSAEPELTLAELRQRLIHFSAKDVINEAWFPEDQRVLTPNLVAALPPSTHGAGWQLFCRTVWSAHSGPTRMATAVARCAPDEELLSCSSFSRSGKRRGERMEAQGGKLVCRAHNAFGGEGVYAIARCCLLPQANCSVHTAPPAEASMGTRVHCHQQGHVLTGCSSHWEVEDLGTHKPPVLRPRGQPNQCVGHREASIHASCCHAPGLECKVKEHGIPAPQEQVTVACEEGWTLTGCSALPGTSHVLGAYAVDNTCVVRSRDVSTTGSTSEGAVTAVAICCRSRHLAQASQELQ
Sequence of PCSK9/LDLR (P01130 22-860 partner limits assumed): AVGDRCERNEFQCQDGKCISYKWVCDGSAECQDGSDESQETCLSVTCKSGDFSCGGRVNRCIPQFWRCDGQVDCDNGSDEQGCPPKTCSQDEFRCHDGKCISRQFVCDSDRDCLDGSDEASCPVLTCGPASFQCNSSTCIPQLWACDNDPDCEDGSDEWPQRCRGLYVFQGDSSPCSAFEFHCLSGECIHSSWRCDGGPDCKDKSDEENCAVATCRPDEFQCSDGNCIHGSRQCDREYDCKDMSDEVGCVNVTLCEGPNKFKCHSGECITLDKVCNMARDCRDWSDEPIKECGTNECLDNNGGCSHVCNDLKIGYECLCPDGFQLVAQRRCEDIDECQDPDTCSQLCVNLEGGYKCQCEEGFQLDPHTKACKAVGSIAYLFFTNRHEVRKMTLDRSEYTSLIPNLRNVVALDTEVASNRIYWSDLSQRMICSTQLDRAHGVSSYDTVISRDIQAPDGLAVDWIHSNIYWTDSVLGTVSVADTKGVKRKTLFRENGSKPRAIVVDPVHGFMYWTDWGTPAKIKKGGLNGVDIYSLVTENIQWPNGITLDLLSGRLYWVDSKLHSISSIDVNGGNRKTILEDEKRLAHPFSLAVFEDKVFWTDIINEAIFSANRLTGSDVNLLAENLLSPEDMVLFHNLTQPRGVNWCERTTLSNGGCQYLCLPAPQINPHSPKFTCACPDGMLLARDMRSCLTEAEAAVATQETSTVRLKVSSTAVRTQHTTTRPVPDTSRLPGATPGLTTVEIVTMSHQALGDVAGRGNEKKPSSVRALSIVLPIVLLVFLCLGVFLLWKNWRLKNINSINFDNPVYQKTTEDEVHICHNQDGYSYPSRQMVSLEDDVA

The assay addresses PCSK9/LDLR (Homo sapiens, UniProt Q8NBP7). Kind of assay: Inhibition of avi-tagged-biotinylated human PCSK9 interaction with His-tagged human LDLR EGFa domain by LANCE Ulight Streptavidin based TR-FRET assay. The assay is classed as protein assay.
`C[C@@H]1NC(=O)[C@H](CC(=O)O)NC(=O)[C@H](Cc2c[nH]c3ccc(F)cc23)NC(=O)[C@H](Cc2c[nH]c3ccc(F)cc23)NC(=O)CNC(=O)[C@H](CCCCN)NC(=O)CCSCc2cccc(c2)CSC[C@@H](C(N)=O)NC(=O)[C@@H]2CCCN2C(=O)[C@H](Cc2ccc(O)cc2)NC1=O` ([Mpa]KG[Trp(5-F)][Trp(5-F)]DAYPC-NH2; linker 1-10 via mXylylene) returned a Ki of 525 nM.
The compound `C[C@H](O)[C@H]1NC(=O)[C@H](CCCCN)NC(=O)CCSCc2cccc(c2)CSCCNC(=O)[C@]2(C)CCCN2C(=O)[C@H](Cc2ccc(O)cc2)NC(=O)[C@H](Cc2cnc[nH]2)NC(=O)[C@H](CC(=O)O)NC(=O)[C@H](Cc2c[nH]c3ccc(F)cc23)NC(=O)[C@H](Cc2c[nH]c3ccc(F)cc23)NC1=O` registered a Ki of 26.9 nM.
In the case of `NCCCC[C@@H]1NC(=O)CCSCc2cccc(c2)CSC[C@H](C(N)=O)NC(=O)[C@@H]2CCCN2C(=O)[C@H](Cc2ccc(O)cc2)NC(=O)[C@H](Cc2cnc[nH]2)NC(=O)[C@H](CC(=O)O)NC(=O)[C@H](Cc2c[nH]c3ccc(F)cc23)NC(=O)[C@H](Cc2c[nH]c3ccc(F)cc23)NC(=O)CNC1=O` it was 2010 nM.
`CN1C(=O)CCSCc2cccc(c2)CSC[C@@H](C(N)=O)NC(=O)[C@@H]2CCCN2C(=O)[C@H](Cc2ccc(O)cc2)NC(=O)[C@H](Cc2cnc[nH]2)NC(=O)[C@H](CC(=O)O)NC(=O)[C@H](Cc2c[nH]c3ccc(F)cc23)NC(=O)[C@H](Cc2c[nH]c3ccc(F)cc23)NC(=O)CNC(=O)[C@@H]1CCCCN` ([Mpa][NMeK]G[Trp(5-F)][Trp(5-F)]DHYPC-NH2; linker 1-10 via mXylylene) yielded a Ki of 342 nM. This Ki is about 5.9-fold lower than that of the compound before.
In the case of `CC(=O)N[C@@H](Cc1cnc[nH]1)C(=O)N(C)[C@@H](Cc1ccc(F)cc1)C(=O)N[C@H]1CSCc2cccc(c2)CSC[C@@H](C(N)=O)NC(=O)[C@@H]2CCCN2C(=O)[C@H](Cc2ccc(O)cc2)NC(=O)[C@H](Cc2cnc[nH]2)NC(=O)[C@H](CC(=O)O)NC(=O)[C@H](Cc2c[nH]c3ccc(F)cc23)NC(=O)[C@H](Cc2c[nH]c3ccc(F)cc23)NC(=O)CNC(=O)[C@H](CCCCN)NC1=O` (Ac-H[NMePhe(4-F)]CKG[Trp(5-F)][Trp(5-F)]DHYPC-NH2; linker 3-12 via mXylylene) it was 956 nM; in that of `C[C@@H]1NC(=O)CNC(=O)[C@H](CCCCN)NC(=O)CCSCc2cccc(c2)CSC[C@@H](C(N)=O)NC(=O)[C@@H]2CCCN2C(=O)[C@H](Cc2ccc(O)cc2)NC(=O)[C@H](Cc2cnc[nH]2)NC(=O)[C@H](CC(=O)O)NC(=O)[C@H](Cc2c[nH]c3ccc(F)cc23)NC1=O` ([Mpa]KGA[Trp(5-F)]DHYPC-NH2; linker 1-10 via mXylylene), 656 nM; in that of `NCCCC[C@@H]1NC(=O)CCSCc2cccc(c2)CSC[C@@H](C(N)=O)NC(=O)[C@@H]2CCCN2C(=O)[C@H](Cc2ccc(O)cc2)NC(=O)[C@H](Cc2c[nH]cn2)NC(=O)[C@H](CC(=O)O)NC(=O)[C@H](Cc2c[nH]c3ccc(F)cc23)NC(=O)[C@H](Cc2ccc(-c3ccccc3)cc2)NC(=O)CNC1=O` ([Mpa]KG[Bip][Trp(5-F)]DHYPC-NH2; linker 1-10 via mXylylene), 29300 nM.
In the case of `NCCCC[C@@H]1NC(=O)CCSCc2cccc(c2)CSC[C@@H](C(N)=O)NC(=O)[C@@H]2CCCN2C(=O)[C@H](Cc2ccc(O)cc2)NC(=O)[C@H](Cc2cnc[nH]2)NC(=O)[C@H](CC(=O)O)NC(=O)[C@H](Cc2c[nH]c3ccc(F)cc23)NC(=O)C(CCc2ccccc2)NC(=O)CNC1=O` (some centres undefined) ([Mpa]KG[ξhPhe][Trp(5-F)]DHYPC-NH2; linker 1-10 via mXylylene) it was 2210 nM; in that of `NCCCC[C@@H]1NC(=O)CCSCc2cccc(c2)CSC[C@@H](C(N)=O)NC(=O)[C@@H]2CCCN2C(=O)[C@@H](Cc2ccc(O)cc2)NC(=O)[C@H](Cc2cnc[nH]2)NC(=O)[C@H](CC(=O)O)NC(=O)[C@H](Cc2c[nH]c3ccc(F)cc23)NC(=O)[C@H](Cc2c[nH]c3ccc(F)cc23)NC(=O)CNC1=O`, greater than 48000 nM.

As usually defined, the Ki is the dissociation constant of the complex between target and ligand, obtained from inhibition or displacement.
